According to the supplement of paper PMC5908809:

Experiments:
[1] = system: normal primary NK cells, pool 1 (3 donors) (IL-2 2.5 ng/mL); test: percent inhibition of viability; higher = more inhibition; details: 72 h
DERL-7 (IL-2 2.5 ng/mL) [2] = test: as above; details: 72 h
[3] = system: normal primary NK cells, pool 1 (3 donors), resting (IL-2 0 ng/mL); test: as above; details: 72 h
SNK-6 (IL-2 2.5 ng/mL) [4] = test: as above; details: 72 h
YT (IL-2 2.5 ng/mL) [5] = test: as above; details: 72 h
[6] = system: normal primary NK cells, pool 2 (3 donors) (IL-2 2.5 ng/mL); test: as above; details: 72 h
KHYG-1 (IL-2 2.5 ng/mL) [7] = test: as above; details: 72 h
NK-YS (IL-2 2.5 ng/mL) [8] = test: as above; details: 72 h
NKL (IL-2 2.5 ng/mL) [9] = test: as above; details: 72 h
KAI3 (IL-2 2.5 ng/mL) [10] = test: as above; details: 72 h
[11] = system: normal primary NK cells, pool 3 (3 donors) (IL-2 2.5 ng/mL); test: as above; details: 72 h
NK-92 (IL-2 2.5 ng/mL) [12] = test: as above; details: 72 h
IMC-1 (IL-2 20 ng/mL) [13] = test: as above; details: 72 h
[14] = system: normal primary NK cells, pool 1 (3 donors) (IL-2 2.5 ng/mL); test: drug sensitivity score (DSS) (DSS units); higher = more sensitive; extreme values may be limits of the assay; details: 72 h
DERL-7 (IL-2 2.5 ng/mL) [15] = test: as above; details: 72 h
[16] = system: normal primary NK cells, pool 1 (3 donors), resting (IL-2 0 ng/mL); test: as above; details: 72 h
SNK-6 (IL-2 2.5 ng/mL) [17] = test: as above; details: 72 h
YT (IL-2 2.5 ng/mL) [18] = test: as above; details: 72 h
[19] = system: normal primary NK cells, pool 2 (3 donors) (IL-2 2.5 ng/mL); test: as above; details: 72 h
KHYG-1 (IL-2 2.5 ng/mL) [20] = test: as above; details: 72 h
NK-YS (IL-2 2.5 ng/mL) [21] = test: as above; details: 72 h
NKL (IL-2 2.5 ng/mL) [22] = test: as above; details: 72 h
KAI3 (IL-2 2.5 ng/mL) [23] = test: as above; details: 72 h
[24] = system: normal primary NK cells, pool 3 (3 donors) (IL-2 2.5 ng/mL); test: as above; details: 72 h
NK-92 (IL-2 2.5 ng/mL) [25] = test: as above; details: 72 h
IMC-1 (IL-2 20 ng/mL) [26] = test: as above; details: 72 h
[27] = system: normal NK cells expanded with K562-aAPC; test: percent inhibition of viability; higher = more inhibition; details: 72 h, IL-2 2.5 ng/mL
Protocol: (§1)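 Drug sensitivity and resistance testing on K562-aAPC-expanded normal NK cells: 5 concentrations (10-fold steps over a 10,000-fold range), 72 h at 37 °C, viability by CellTiter-Glo normalised to DMSO and benzethonium chloride controls; DSS from the fitted curve.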

[28] = system: normal NK cells expanded with K562-aAPC; test: drug sensitivity score (DSS) (DSS units); higher = more sensitive; extreme values may be limits of the assay; details: 72 h; IL-2 2.5 ng/mL
Protocol: as §1

C[C@@H]1CN(Cc2ccc(F)cc2)[C@@H](C)CN1C(=O)c1cc2c(C(=O)C(=O)N(C)C)cn(C)c2cc1Cl [Talmapimod] (max concentration tested 10000 nM)
percent inhibition of viability [%]
Details | 1 nM | 10 nM | 100 nM | 1000 nM | 10000 nM
DERL-7 (IL-2 2.5 ng/mL) [2] | -8.76 | 3.34 | -3.64 | 2.18 | -3.8
IMC-1 (IL-2 20 ng/mL) [13] | -2.4 | -5.13 | -5.16 | -10.4 | 0.72
KAI3 (IL-2 2.5 ng/mL) [10] | -4.84 | 8.7 | 21.6 | 21.2 | 32.1
KHYG-1 (IL-2 2.5 ng/mL) [7] | -8.74 | -9.48 | -3.07 | -9.07 | -3.04
NK-92 (IL-2 2.5 ng/mL) [12] | -13.6 | -14.2 | -7.08 | -0.77 | 6.94
NK-YS (IL-2 2.5 ng/mL) [8] | -5.34 | -2.3 | 1.96 | 6.17 | 14.5
NKL (IL-2 2.5 ng/mL) [9] | -6.18 | -3.36 | 7.54 | 9.7 | 22.9
SNK-6 (IL-2 2.5 ng/mL) [4] | -0.46 | -0.9 | -3.03 | -23.7 | -10.1
YT (IL-2 2.5 ng/mL) [5] | -3.64 | -1.4 | 4.73 | 5.29 | 14.3
[1] | -13.6 | -10.8 | -4.95 | -6.75 | 2.92
[3] | -0.54 | -6.9 | 17.6 | 15.2 | 37
[6] | -0.88 | -7.3 | -3.09 | 1.69 | 0.02
[11] | -3.75 | 4.83 | 4.73 | 0.2 | 1.78
[27] | -9.71 | -4.89 | -9.38 | -4.26 | -10.1

Details | drug sensitivity score
DERL-7 (IL-2 2.5 ng/mL) [15] | 0
IMC-1 (IL-2 20 ng/mL) [26] | 0
KAI3 (IL-2 2.5 ng/mL) [23] | 6.42
KHYG-1 (IL-2 2.5 ng/mL) [20] | 0
NK-92 (IL-2 2.5 ng/mL) [25] | 0
NK-YS (IL-2 2.5 ng/mL) [21] | 0.37
NKL (IL-2 2.5 ng/mL) [22] | 1.47
SNK-6 (IL-2 2.5 ng/mL) [17] | 0
YT (IL-2 2.5 ng/mL) [18] | 0.18
[14] | 0
[16] | 4.01
[19] | 0
[24] | 0
[28] | 0

O[C@H]1CC[C@H](Nc2ncc3nc(Nc4c(F)cc(F)cc4F)n([C@H]4CCOC4)c3n2)CC1 [Tanzisertib] (max concentration tested 10000 nM)
percent inhibition of viability [%]
Details | 1 nM | 10 nM | 100 nM | 1000 nM | 10000 nM
DERL-7 (IL-2 2.5 ng/mL) [2] | 2.01 | 0.84 | 5.01 | 1.8 | 18.5
IMC-1 (IL-2 20 ng/mL) [13] | -1.71 | -1.33 | 2.23 | -2.89 | 5.65
KAI3 (IL-2 2.5 ng/mL) [10] | -8.76 | -8.77 | 4.38 | -3.26 | 2.19
KHYG-1 (IL-2 2.5 ng/mL) [7] | 0.6 | 1.16 | 7.05 | 3.25 | 12.8
NK-92 (IL-2 2.5 ng/mL) [12] | -1.51 | -5.43 | 11.5 | -0.78 | 4.63
NK-YS (IL-2 2.5 ng/mL) [8] | -2.74 | -2.64 | 8.64 | 8.4 | 27.7
NKL (IL-2 2.5 ng/mL) [9] | -12.2 | -7.14 | 8.81 | 20.3 | 40
SNK-6 (IL-2 2.5 ng/mL) [4] | -5.24 | -3.37 | -1.51 | -9.49 | -28.9
YT (IL-2 2.5 ng/mL) [5] | 1.29 | 0.43 | 6.25 | 4.44 | 17.9
[1] | -1.02 | -9.12 | -4.55 | -5.56 | 12.8
[3] | -2.07 | -5.9 | 3.76 | -27.5 | -23.7
[6] | -13.6 | -1.21 | 2.95 | -6.75 | 12.9
[11] | -10.2 | -3.98 | 0.77 | -8.69 | 3.78
[27] | -0.53 | 1.03 | -5.53 | 1.96 | 16.8

Details | drug sensitivity score
DERL-7 (IL-2 2.5 ng/mL) [15] | 0.7
IMC-1 (IL-2 20 ng/mL) [26] | 0
KAI3 (IL-2 2.5 ng/mL) [23] | 0
KHYG-1 (IL-2 2.5 ng/mL) [20] | 0
NK-92 (IL-2 2.5 ng/mL) [25] | 0
NK-YS (IL-2 2.5 ng/mL) [21] | 1.7
NKL (IL-2 2.5 ng/mL) [22] | 4.27
SNK-6 (IL-2 2.5 ng/mL) [17] | 0
YT (IL-2 2.5 ng/mL) [18] | 0.43
[14] | 0.03
[16] | 0
[19] | 0.02
[24] | 0
[28] | 0.57

NC(=O)Nc1sc(-c2ccc(F)cc2)cc1C(N)=O [TPCA-1] (max concentration tested 25000 nM)
percent inhibition of viability [%]
Details | 2.5 nM | 25 nM | 250 nM | 2500 nM | 25000 nM
DERL-7 (IL-2 2.5 ng/mL) [2] | 0.71 | 4.69 | 36.8 | 94 | 100
IMC-1 (IL-2 20 ng/mL) [13] | -2.64 | -8.76 | -6.99 | 3.86 | 99.3
KAI3 (IL-2 2.5 ng/mL) [10] | -6.8 | -3.3 | 53.5 | 89.1 | 91.4
KHYG-1 (IL-2 2.5 ng/mL) [7] | -2.05 | -6.88 | 25.8 | 101 | 97.8
NK-92 (IL-2 2.5 ng/mL) [12] | -11.2 | -10.8 | 8.78 | 80.4 | 91.7
NK-YS (IL-2 2.5 ng/mL) [8] | -6.85 | -4.02 | 17 | 58 | 94.8
NKL (IL-2 2.5 ng/mL) [9] | -2.04 | -2.79 | 45.8 | 72.9 | 87.4
SNK-6 (IL-2 2.5 ng/mL) [4] | -12.6 | -19.3 | 33.2 | 75.8 | 93.2
YT (IL-2 2.5 ng/mL) [5] | -3.91 | -4.44 | 13.1 | 79.6 | 97.9
[1] | -12.8 | -10.6 | 13.2 | 73.4 | 94.3
[3] | -1.07 | 1.15 | 3.48 | 43.5 | 82.3
[6] | -8.08 | -4.41 | 24.2 | 69.5 | 87.1
[11] | -6.13 | -4.52 | 15.6 | 67.3 | 91.3
[27] | -0.68 | -4.88 | 18.2 | 88.4 | 98.1

Details | drug sensitivity score
DERL-7 (IL-2 2.5 ng/mL) [15] | 21.5
IMC-1 (IL-2 20 ng/mL) [26] | 6.04
KAI3 (IL-2 2.5 ng/mL) [23] | 23
KHYG-1 (IL-2 2.5 ng/mL) [20] | 21.9
NK-92 (IL-2 2.5 ng/mL) [25] | 15.9
NK-YS (IL-2 2.5 ng/mL) [21] | 13.2
NKL (IL-2 2.5 ng/mL) [22] | 20
SNK-6 (IL-2 2.5 ng/mL) [17] | 18.2
YT (IL-2 2.5 ng/mL) [18] | 16.3
[14] | 15.2
[16] | 9.72
[19] | 15.8
[24] | 14.5
[28] | 18.4
